The values below come from patent publication US11434241B2, “Pyrimidine derivatives for prevention and treatment of bacterial infections” (UNIVERSITE DE LIEGE, priority 2018, dated 2022).

The subject of test [1] is Glycopeptide intermediate-resistant (GISA) S. aureus Mu-50 (ATCC 700695). The test can be described thus: MIC determination on glycopeptide intermediate-resistant S. aureus. The following applies: Staphylococcus aureus, ATCC700695, read-out: MIC S. aureus GISA. It is filed as cell-based. How it is done:
Further experiments are conducted using different strains of S. aureus, as clinically relevant Gram-positive bacterial strains: S. aureus ATCC 25904, methicillin-resistant S. aureus (MRSA) ATCC BAA-1556, Glycopeptide intermediate-resistant (GISA) S. aureus Mu-50 (ATCC 700695) in order to determine the Minimal Inhibitory Concentration (MIC) which is the minimal concentration required to prevent bacterial growth. The bioluminescent strain S. aureus Xen29 (ATCC 12600) was also used. This strain is derived from the parental strain S. aureus ATCC 12600, a pleural fluid isolate, which is also designated as NCTC8532.
A single colony selected from the different strains of S. aureus is resuspended and cultured in brain heart infusion (BHI) broth overnight (O/N) in aerobic conditions (37° C. with 220 rpm shaking), next day a 1:100 inoculum in Mueller-Hinton broth (MHB) is incubated in aerobic conditions for 3 hr (=OD0.08-0.1) and an inoculum of 1:300 dilution, corresponding to 3×10^5 CFU/ml, is incubated in presence or absence of different concentrations of the tested molecules in 1% DMSO. After O/N growth the OD of each culture was measured at 600 nm (OD600) in a spectrophotometer (Victor 3-Perkin Elmer). The MIC represents the concentration at which there is no visible growth of bacteria, i.e. ΔOD at 600 nm equal to zero (blank is the medium alone). […] The MIC of molecule 2329 against Glycopeptide intermediate-resistant (GISA) S. aureus Mu-50 (ATCC 700695) is in between 25 and 30 μM, while it is above 50 μM for molecules 2348, 2412, and 2452.

Test [2] has as its system MRSA. The test can be described thus: Minimal Bactericidal Concentration (MBC) for MRSA. It is filed as cell-based, Staphylococcus aureus. The following applies: for MBC: Staphylococcus aureus, MRSA, 99.9% of initial inoculum killed over 24 hours. The protocol:
We have determined the Minimal Bactericidal Concentration (MBC) of the pyrazolopyrimidine molecule 2666 for the MRSA strain and the MBC of the purine molecules 2329 and 2833 for MRSA and the MRSE strain respectively.
To determine the MBC, bacteria were grown as per MIC determination in presence of the pyrazolopyrimidine molecule 2666 for MRSA or in presence of the purine molecule 2833 for MRSE or 2329 for MRSA. At 24 hours bacteria were plated on TSB agar plates by the broth microdilution method, and colonies formed on the plates were counted next day.
The MBC represents the lowest concentration at which 99.9% bacteria of the initial inoculum are killed over 24 hours.

Test [3] concerns S. epidermidis (ATCC 35984) 24h-mature biofilm. The test can be described thus: S. epidermidis 24h-mature biofilm, crystal violet biomass. The following applies: 80 μM; 24 h treatment of 24-hour mature biofilm. Type of test: cell-based, Staphylococcus epidermidis. How it is done:
In another experiment we let adhere 0.5×10^8 CFU/ml S. epidermidis cells for 4 hr and let the biofilm form for additional 24 hr in presence of 0.25% glucose, at this point we treated the biofilm with different concentrations of molecule 2329 for 24 h in TSB with 0.25% glucose and determined the biofilm biomass using the crystal violet staining.
For biofilm analysis, we first washed the biofilm 3 times with NaCl 0.9% to eliminate all planktonic bacteria, before incubation with a staining Crystal Violet 1% solution in distilled H2O (dH2O).
Wells are washed 3 times with dH2O to eliminate unbound crystal violet. 400 μl Acetic Acid 10% is then added and incubated at RT for 10 min. Absorbance is measured in triplicate at 570 nm, reflecting total biomass of the biofilm.

Values after ≈ are worked out from the molar mass of the structure shown.

As for `C=CCn1cnc2c(N[C@@H]3C[C@H]3c3ccc(F)c(F)c3)nc(SCCC)nc21` [Molecule 2412, 9-allyl-N-((1R,2S)-2-(3,4-difluorophenyl)cyclopropyl)-2-(propylthio)-9H-purin-6-amine], the MIC in test [1] was above 50 µM.
`C#CCn1cnc2c(N[C@@H]3C[C@H]3c3ccc(F)c(F)c3)nc(SCCC)nc21` [Molecule 2452, N-((1R,2S)-2-(3,4-difluorophenyl)cyclopropyl)-9-(prop-2-yn-1-yl)-2-(propylthio)-9H-purin-6-amine]: in test [1], the minimum inhibitory concentration (MIC) was above 50 µM.
Take `CCSc1nc(N[C@@H]2C[C@H]2c2ccc(F)c(F)c2)c2cnn(C)c2n1.Cl` [Molecule 2666, N-((1R,2S)-2-(3,4-difluorophenyl)cyclopropyl)-6-(ethylthio)-1-methyl-1H-pyrazolo[3,4-d]pyrimidin-4-amine hydrochloride]: in test [2], the “MBC relative to MIC, MRSA” value is recorded as “around 2 times” and the MBC was 40 µM.
Turning to `CCCSc1nc(N[C@@H]2C[C@H]2c2ccc(F)c(F)c2)c2ncn(C)c2n1` [Molecule 2329, N-((1R,2S)-2-(3,4-difluorophenyl)cyclopropyl)-9-methyl-2-(propylthio)-9H-purin-6-amine], in test [2], the “MBC relative to MIC, MRSA” value was “around 2 times” and the MBC turned out to be 40 µM (≈ 15 µg/mL). In addition, the minimum inhibitory concentration (MIC) in test [1] is 25 to 30 µM (≈ 9.39 to 11.3 µg/mL). Further, the “mature biofilm biomass (crystal violet, absorbance 570 nm)” value in test [3] is reported as “could reduce”.
On to `CCCSc1nc(N[C@@H]2C[C@H]2c2ccc(F)c(F)c2)c2ncn(CC)c2n1` [Molecule 2348, N-((1R,2S)-2-(3,4-difluorophenyl)cyclopropyl)-9-ethyl-2-(propylthio)-9H-purin-6-amine], for which the MIC in test [1] was above 50 µM.
